These results are taken from publication PMC8645336, “Benchmarking a highly selective USP30 inhibitor for enhancement of mitophagy and pexophagy” (Life Science Alliance, 2021).

Test in all cases: biochemical
Common to all, as to parameters: Ubiquigent DUB profiler selectivity panel, remaining enzyme activity as % of control
Holding throughout (details): read-out: % of control remaining

In one experiment the target is T1, OTUD5 (p177S) (Homo sapiens, UniProt Q96G74).
T1 construct: phosphorylated S177
T1 sequence (Q96G74 1-571): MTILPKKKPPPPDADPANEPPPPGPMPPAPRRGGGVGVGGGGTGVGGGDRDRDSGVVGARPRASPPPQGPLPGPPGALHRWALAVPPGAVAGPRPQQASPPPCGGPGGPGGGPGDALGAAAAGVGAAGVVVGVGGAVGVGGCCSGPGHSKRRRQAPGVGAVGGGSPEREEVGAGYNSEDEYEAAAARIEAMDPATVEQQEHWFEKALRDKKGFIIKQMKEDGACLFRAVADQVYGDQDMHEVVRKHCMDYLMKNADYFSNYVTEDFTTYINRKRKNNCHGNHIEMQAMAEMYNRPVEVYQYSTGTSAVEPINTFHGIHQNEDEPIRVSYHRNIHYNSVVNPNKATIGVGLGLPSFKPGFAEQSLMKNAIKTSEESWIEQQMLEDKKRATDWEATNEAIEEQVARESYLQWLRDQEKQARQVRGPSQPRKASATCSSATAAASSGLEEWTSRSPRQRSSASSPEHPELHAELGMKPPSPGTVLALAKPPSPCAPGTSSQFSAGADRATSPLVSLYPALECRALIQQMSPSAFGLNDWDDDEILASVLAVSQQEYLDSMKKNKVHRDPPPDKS
An outline of the steps:
(§1)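 In YFP-PRKN-overexpressing hTERT-RPE1 cells, 1 h antimycin A plus oligomycin A (1 μM each) with CMPD-39, then Western blot of TOMM20 ubiquitylation. Target engagement: 2 h compound, then 10 min HA-Ub-PA at 37°C, read as USP30 shift. DUB panel (>40 enzymes) screened at 1-100 μM.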

The target in a further experiment is USP11 (Homo sapiens, UniProt P51784). Put shortly:
as §1

The target in a further experiment is T2, USP5 (Homo sapiens, UniProt P45974).
T2 sequence (P45974 1-858): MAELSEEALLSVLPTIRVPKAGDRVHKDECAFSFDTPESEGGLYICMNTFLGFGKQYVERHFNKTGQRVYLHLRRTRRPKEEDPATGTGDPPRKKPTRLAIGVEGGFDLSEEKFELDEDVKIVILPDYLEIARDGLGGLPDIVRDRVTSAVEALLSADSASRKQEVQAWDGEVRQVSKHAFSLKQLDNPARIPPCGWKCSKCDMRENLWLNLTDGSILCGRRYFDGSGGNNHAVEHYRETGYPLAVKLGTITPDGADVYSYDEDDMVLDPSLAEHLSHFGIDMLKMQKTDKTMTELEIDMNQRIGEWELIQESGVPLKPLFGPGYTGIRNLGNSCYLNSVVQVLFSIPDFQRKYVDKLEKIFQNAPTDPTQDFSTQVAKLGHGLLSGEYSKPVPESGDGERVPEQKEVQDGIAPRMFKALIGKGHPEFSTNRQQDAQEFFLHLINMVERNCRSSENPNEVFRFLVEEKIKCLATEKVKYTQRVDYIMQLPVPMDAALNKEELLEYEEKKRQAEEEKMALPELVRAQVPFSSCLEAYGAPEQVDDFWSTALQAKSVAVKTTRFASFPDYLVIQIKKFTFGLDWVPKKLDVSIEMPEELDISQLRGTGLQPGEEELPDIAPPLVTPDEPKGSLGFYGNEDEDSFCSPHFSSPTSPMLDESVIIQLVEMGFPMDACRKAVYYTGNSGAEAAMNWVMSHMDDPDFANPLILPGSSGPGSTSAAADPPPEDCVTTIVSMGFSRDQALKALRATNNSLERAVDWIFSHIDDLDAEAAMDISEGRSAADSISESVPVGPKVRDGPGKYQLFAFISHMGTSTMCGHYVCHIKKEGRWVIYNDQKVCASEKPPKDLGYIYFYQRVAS
An outline of the steps:
as §1

Chain of USP11 (P51784 whole entry): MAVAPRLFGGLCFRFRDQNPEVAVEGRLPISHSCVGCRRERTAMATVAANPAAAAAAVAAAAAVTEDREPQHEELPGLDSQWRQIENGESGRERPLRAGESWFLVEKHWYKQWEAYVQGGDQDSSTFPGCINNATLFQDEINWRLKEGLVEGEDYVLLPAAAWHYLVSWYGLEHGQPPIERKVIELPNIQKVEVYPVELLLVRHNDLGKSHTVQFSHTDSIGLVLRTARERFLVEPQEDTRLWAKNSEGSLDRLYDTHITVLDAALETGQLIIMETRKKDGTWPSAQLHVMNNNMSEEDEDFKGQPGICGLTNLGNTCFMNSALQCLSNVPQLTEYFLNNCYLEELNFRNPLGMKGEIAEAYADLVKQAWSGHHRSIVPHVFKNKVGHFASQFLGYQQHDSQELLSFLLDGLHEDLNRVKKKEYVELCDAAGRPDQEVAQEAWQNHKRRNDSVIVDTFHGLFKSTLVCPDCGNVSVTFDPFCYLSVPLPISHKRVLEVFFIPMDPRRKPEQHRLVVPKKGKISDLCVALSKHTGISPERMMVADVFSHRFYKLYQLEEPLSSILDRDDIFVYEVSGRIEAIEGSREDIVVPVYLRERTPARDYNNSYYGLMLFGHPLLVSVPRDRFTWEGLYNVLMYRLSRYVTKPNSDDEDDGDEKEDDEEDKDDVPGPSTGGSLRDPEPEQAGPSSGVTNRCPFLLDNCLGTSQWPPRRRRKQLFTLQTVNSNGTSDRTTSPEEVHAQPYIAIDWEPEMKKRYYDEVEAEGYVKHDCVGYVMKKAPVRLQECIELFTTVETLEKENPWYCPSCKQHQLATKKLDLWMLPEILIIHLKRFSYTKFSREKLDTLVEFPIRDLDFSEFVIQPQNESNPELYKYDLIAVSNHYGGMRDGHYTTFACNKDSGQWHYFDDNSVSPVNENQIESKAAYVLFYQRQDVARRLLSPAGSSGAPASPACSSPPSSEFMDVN

Take `CC(C)(C)NS(=O)(=O)c1ccc(NC(=O)[C@H](Cc2ccccc2)NC(=O)c2ccc(F)cc2)cc1` [compound 39, CMPD-39]: at OTUD5 (p177S), the remaining activity at 1 µM is 108%, the remaining activity at 10 µM amounted to 106% and the remaining activity at 100 µM came to 89.9%. For the same compound, on USP11, the remaining activity at 1 µM worked out at 103%, the remaining activity at 10 µM was 98.4% and the remaining activity at 100 µM was 97.2%. Besides, at USP5, the remaining activity at 1 µM is 104%, the remaining activity at 10 µM stood at 101% and the remaining activity at 100 µM was determined as 106%.
